Experimental data from paper PMC9030254, “Target Hopping from Protein Kinases to PXR: Identification of Small-Molecule Protein Kinase Inhibitors as Selective Modulators of Pregnane X Receptor from TüKIC Library” (Cells, 2022).

Legend:
Experiment in all cases: Kinase profiling
Type in all cases: biochemical
MINK1 = molecular target: T1, MINK1 (Homo sapiens, UniProt Q8N4C8)
T1 construct: purchased ProQinase (Freiburg, Germany)
Description: (§1) The analysis was performed by ProQinase (Freiburg, Germany).

CAMK1D = molecular target: T2, CAMK1D (Homo sapiens, UniProt Q8IU85)
T2 construct: purchased ProQinase (Freiburg, Germany)
Description: as §1

LTK = molecular target: T3, LTK (Homo sapiens, UniProt P29376)
T3 construct: purchased ProQinase (Freiburg, Germany)
Description: as §1

ZAP70 = molecular target: T4, ZAP70 (Homo sapiens, UniProt P43403)
T4 construct: purchased ProQinase (Freiburg, Germany)
T4 sequence (P43403 1-619): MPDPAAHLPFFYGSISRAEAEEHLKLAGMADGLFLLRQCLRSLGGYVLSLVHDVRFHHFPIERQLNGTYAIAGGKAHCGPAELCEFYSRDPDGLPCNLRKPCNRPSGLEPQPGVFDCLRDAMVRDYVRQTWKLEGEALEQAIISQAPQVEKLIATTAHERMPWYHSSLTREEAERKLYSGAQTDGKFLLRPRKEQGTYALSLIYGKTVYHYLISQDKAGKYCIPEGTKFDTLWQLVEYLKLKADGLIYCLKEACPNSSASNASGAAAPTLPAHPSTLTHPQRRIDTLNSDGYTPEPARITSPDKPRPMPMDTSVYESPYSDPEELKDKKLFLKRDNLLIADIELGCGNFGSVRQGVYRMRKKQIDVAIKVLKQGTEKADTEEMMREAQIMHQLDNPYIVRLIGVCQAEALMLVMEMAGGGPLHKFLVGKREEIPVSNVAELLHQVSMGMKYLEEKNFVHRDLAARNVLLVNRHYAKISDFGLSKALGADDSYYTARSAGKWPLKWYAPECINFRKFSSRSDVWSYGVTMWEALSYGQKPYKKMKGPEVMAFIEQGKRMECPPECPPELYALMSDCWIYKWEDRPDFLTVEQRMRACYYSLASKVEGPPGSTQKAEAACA
Description: as §1

MKK6 SDTD = molecular target: T5, MKK6 SDTD (Homo sapiens, UniProt P52564, S207D/T211D)
T5 construct: purchased ProQinase (Freiburg, Germany)
T5 sequence (P52564 1-334 S207D/T211D): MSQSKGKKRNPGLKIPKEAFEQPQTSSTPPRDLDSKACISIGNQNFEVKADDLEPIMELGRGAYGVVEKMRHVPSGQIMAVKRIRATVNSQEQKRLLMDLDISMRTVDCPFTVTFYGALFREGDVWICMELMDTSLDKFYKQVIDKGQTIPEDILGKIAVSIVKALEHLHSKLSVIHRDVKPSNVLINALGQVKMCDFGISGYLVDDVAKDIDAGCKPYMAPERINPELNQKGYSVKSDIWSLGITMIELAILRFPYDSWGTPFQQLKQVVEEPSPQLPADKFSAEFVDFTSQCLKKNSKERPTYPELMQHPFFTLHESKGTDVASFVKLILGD
Description: as §1

S6Kbeta = molecular target: T6, S6Kbeta (Homo sapiens, UniProt Q9UBS0)
T6 construct: purchased ProQinase (Freiburg, Germany)
Description: as §1

WNK2 = molecular target: T7, WNK2 (Homo sapiens, UniProt Q9Y3S1)
T7 construct: purchased ProQinase (Freiburg, Germany)
Description: as §1

EPHA5 = molecular target: T8, EPHA5 (Homo sapiens, UniProt P54756)
T8 construct: purchased ProQinase (Freiburg, Germany)
Description: as §1

MKK7 = molecular target: T9, MKK7 (Homo sapiens, UniProt O14733)
T9 construct: purchased ProQinase (Freiburg, Germany)
T9 sequence (O14733 1-419): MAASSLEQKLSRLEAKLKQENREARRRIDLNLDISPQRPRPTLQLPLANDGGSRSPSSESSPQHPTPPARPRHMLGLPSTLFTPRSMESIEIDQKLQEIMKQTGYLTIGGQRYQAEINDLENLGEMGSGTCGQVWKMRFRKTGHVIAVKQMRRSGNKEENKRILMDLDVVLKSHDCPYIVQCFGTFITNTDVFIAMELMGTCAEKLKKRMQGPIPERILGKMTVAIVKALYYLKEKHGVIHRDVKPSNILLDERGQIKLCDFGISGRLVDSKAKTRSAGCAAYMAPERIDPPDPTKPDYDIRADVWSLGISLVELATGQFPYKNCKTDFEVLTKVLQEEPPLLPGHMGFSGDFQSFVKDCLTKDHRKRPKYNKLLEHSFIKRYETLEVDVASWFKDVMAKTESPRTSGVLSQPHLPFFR
Description: as §1

YES = molecular target: T10, YES (Homo sapiens, UniProt P07947)
T10 construct: purchased ProQinase (Freiburg, Germany)
Description: as §1

RIPK5 = molecular target: T11, RIPK5 (Homo sapiens, UniProt Q6XUX3)
T11 construct: purchased ProQinase (Freiburg, Germany)
T11 sequence (Q6XUX3 1-929): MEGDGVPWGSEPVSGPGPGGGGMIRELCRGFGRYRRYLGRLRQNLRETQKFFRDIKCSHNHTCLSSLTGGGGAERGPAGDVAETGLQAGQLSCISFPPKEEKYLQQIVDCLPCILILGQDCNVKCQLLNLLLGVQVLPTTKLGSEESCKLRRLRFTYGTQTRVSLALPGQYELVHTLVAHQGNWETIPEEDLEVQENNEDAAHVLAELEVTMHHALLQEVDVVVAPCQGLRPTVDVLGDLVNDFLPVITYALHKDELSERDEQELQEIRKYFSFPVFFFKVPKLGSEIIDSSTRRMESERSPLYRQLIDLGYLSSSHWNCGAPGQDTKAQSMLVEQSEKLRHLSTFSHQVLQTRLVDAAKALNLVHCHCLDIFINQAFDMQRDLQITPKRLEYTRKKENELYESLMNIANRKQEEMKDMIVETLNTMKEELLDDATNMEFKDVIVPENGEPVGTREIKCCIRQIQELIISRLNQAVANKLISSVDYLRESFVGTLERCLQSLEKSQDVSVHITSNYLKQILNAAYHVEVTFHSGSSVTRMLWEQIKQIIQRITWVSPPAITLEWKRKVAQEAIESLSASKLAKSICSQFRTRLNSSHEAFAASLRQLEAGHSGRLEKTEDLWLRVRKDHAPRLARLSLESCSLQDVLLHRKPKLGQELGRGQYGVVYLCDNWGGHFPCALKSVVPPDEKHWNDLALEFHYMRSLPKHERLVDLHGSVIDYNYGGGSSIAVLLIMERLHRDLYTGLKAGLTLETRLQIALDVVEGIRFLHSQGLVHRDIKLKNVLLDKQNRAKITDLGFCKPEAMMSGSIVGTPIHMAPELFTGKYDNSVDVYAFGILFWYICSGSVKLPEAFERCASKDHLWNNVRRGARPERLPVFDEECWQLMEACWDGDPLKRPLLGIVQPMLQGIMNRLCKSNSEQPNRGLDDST
Description: as §1

T7 sequence (Q9Y3S1 whole entry): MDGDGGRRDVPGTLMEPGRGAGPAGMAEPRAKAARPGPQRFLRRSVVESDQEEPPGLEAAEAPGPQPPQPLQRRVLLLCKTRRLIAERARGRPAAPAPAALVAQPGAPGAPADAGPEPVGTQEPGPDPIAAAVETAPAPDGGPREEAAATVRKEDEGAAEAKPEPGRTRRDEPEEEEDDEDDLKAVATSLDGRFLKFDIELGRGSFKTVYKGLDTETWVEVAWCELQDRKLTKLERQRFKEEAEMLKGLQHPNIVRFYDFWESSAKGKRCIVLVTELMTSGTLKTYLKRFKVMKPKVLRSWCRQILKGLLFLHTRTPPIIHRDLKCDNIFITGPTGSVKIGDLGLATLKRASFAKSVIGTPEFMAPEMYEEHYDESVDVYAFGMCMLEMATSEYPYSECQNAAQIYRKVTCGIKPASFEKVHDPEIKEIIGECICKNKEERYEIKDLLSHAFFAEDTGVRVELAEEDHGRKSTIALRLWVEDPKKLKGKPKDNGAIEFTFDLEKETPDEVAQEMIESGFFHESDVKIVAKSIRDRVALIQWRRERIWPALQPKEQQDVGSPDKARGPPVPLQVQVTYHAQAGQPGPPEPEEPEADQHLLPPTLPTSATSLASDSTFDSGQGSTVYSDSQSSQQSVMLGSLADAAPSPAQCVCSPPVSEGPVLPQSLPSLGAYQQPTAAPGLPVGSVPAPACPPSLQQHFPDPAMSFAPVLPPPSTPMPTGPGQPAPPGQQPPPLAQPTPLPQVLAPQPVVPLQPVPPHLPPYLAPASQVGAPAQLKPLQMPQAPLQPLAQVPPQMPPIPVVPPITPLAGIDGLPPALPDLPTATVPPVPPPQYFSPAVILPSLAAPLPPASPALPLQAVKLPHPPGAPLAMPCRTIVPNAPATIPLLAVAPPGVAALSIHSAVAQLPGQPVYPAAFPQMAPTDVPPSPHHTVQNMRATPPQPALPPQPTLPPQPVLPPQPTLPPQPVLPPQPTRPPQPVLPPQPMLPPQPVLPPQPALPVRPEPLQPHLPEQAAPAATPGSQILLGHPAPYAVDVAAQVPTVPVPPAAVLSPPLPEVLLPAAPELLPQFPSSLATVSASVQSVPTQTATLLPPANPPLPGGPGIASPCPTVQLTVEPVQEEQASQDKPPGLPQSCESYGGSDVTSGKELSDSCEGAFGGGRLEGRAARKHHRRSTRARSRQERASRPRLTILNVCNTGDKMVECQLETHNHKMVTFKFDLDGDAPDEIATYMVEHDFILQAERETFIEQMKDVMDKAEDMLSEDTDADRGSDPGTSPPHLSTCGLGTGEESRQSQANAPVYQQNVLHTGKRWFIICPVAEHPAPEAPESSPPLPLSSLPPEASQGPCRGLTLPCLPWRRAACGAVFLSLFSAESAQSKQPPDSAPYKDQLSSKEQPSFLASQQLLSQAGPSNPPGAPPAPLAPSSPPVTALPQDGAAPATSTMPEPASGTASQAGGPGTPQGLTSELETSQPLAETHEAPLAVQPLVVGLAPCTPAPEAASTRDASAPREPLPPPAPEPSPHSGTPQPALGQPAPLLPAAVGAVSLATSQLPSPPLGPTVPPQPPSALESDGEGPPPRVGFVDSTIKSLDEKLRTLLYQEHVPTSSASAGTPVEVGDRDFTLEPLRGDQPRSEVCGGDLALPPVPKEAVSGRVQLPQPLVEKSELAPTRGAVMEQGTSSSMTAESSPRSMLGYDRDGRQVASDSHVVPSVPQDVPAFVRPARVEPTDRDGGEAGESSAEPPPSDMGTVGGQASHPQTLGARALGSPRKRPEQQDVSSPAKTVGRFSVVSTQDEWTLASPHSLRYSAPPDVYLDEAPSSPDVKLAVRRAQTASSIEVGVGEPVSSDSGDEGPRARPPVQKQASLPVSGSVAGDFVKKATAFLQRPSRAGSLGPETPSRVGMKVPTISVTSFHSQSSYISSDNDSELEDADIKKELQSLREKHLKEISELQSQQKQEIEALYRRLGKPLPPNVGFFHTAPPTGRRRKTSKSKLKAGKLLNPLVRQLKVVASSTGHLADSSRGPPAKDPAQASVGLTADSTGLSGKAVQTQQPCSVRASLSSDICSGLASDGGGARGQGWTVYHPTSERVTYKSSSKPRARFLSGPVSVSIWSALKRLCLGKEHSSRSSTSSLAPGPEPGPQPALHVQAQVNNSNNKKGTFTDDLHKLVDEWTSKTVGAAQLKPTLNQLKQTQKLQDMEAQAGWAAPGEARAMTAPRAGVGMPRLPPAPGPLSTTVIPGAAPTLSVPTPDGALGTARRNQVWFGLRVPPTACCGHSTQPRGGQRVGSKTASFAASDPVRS
T2 sequence (Q8IU85 whole entry): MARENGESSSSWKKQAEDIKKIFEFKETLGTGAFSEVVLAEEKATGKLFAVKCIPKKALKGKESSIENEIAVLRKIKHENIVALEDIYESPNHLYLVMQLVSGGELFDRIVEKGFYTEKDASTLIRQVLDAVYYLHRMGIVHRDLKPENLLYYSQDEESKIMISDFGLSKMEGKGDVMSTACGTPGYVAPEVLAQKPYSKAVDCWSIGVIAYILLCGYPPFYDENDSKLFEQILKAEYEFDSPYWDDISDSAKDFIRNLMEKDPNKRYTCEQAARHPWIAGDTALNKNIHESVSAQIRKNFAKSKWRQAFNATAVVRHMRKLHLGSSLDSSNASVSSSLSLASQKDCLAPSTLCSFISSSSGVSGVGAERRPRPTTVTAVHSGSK
T8 sequence (P54756 25-1037): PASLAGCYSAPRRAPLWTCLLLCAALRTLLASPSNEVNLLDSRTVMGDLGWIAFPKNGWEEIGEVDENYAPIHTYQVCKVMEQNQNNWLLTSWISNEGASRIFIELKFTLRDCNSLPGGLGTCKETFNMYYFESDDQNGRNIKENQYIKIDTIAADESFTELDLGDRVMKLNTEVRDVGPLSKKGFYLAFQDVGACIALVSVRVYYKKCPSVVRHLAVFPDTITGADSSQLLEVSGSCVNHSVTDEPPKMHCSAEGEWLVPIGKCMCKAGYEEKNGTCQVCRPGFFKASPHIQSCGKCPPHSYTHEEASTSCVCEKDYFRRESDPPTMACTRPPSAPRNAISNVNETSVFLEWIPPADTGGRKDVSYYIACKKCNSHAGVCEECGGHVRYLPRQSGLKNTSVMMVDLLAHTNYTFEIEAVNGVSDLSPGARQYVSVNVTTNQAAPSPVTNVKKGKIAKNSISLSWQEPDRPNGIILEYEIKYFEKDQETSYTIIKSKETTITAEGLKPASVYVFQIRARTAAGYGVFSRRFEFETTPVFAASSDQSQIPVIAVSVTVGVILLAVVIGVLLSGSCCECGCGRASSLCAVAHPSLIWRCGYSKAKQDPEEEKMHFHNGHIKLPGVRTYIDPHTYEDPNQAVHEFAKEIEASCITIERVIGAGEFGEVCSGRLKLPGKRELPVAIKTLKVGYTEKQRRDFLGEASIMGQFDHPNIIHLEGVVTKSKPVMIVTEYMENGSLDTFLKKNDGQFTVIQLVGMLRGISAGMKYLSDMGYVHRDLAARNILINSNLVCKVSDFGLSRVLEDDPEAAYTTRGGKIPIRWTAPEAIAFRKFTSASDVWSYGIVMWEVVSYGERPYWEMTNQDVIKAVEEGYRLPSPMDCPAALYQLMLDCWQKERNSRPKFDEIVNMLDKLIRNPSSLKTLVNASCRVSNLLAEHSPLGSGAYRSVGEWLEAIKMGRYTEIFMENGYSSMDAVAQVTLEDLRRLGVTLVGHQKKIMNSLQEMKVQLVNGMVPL
T1 sequence (Q8N4C8 whole entry): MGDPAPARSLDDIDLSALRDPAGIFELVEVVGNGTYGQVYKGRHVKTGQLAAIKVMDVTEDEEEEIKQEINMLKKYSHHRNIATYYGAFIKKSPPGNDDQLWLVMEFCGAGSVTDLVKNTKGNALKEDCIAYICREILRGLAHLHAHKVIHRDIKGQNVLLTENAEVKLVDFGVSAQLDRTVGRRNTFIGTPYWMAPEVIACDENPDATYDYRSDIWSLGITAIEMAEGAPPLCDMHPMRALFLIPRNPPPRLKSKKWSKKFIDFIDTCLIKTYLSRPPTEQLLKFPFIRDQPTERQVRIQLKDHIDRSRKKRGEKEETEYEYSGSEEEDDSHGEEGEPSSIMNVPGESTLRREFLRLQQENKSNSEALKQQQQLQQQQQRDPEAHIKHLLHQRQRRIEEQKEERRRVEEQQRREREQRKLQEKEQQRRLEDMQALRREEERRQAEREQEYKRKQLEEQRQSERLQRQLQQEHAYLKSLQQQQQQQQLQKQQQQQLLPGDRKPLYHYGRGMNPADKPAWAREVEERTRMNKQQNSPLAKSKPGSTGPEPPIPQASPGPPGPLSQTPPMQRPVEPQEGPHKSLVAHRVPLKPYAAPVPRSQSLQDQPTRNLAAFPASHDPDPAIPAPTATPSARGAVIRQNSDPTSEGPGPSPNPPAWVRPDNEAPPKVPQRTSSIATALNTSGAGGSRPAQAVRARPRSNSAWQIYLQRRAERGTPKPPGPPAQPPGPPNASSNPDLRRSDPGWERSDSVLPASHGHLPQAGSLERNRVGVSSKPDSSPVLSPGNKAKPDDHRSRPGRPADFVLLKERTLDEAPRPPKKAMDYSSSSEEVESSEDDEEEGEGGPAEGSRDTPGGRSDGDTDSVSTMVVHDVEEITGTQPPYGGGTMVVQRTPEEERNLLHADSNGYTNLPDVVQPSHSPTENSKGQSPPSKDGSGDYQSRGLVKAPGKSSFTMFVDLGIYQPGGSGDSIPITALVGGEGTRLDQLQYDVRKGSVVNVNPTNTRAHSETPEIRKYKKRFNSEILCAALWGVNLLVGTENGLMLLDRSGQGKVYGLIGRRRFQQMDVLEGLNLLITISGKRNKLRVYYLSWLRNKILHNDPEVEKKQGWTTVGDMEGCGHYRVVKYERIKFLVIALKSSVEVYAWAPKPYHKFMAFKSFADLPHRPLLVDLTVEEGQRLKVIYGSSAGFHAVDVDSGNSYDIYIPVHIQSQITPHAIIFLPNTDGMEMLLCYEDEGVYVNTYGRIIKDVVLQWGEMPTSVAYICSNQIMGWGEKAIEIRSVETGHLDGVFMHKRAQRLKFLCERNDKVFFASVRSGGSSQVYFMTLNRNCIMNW

| SMILES | Residual activity (MINK1; 1.0E-05 M) | Residual activity (MINK1; 1.0E-06 M) | Residual activity (CAMK1D; 1.0E-05 M) | Residual activity (CAMK1D; 1.0E-06 M) | Residual activity (LTK; 1.0E-05 M) | Residual activity (LTK; 1.0E-06 M) | Residual activity (ZAP70; 1.0E-05 M) | Residual activity (ZAP70; 1.0E-06 M) | Residual activity (MKK6 SDTD; 1.0E-05 M) | Residual activity (MKK6 SDTD; 1.0E-06 M) | Residual activity (S6Kbeta; 1.0E-05 M) | Residual activity (S6Kbeta; 1.0E-06 M) | Residual activity (WNK2; 1.0E-05 M) | Residual activity (WNK2; 1.0E-06 M) | Residual activity (EPHA5; 1.0E-05 M) | Residual activity (EPHA5; 1.0E-06 M) | Residual activity (MKK7; 1.0E-05 M) | Residual activity (MKK7; 1.0E-06 M) | Residual activity (YES; 1.0E-05 M) | Residual activity (YES; 1.0E-06 M) | other results |
| --- | --- | --- | --- | --- | --- | --- | --- | --- | --- | --- | --- | --- | --- | --- | --- | --- | --- | --- | --- | --- | --- |
| O=C(Cc1ccccc1)Nc1ccc(F)c(Nc2ccc3c(c2)CCCCC3=O)c1 [Compound 100] | 73 % of control | 89 % of control | 88 % of control | 85 % of control | 50 % of control | 115 % of control | 103 % of control | 118 % of control | 109 % of control | 89 % of control | 85 % of control | 96 % of control | 100 % of control | 95 % of control | 67 % of control | 96 % of control | 110 % of control | 101 % of control | 70 % of control | 87 % of control | Residual activity (RIPK5; 1.0E-05 M): 99 % of control; Residual activity (RIPK5; 1.0E-06 M): 100 % of control |
| O=C(Nc1ccc(F)c(Nc2ccc3c(c2)CCCCC3=O)c1)c1cccc(F)c1 [Compound 109] | 57 % of control | 86 % of control | 89 % of control | 93 % of control | 77 % of control | 95 % of control | 91 % of control | 114 % of control | 137 % of control | 85 % of control | 96 % of control | 102 % of control | 96 % of control | 90 % of control | 60 % of control | 93 % of control | 90 % of control | 84 % of control | 77 % of control | 98 % of control | Residual activity (RIPK5; 1.0E-05 M): 100 % of control; Residual activity (RIPK5; 1.0E-06 M): 101 % of control |
